The text below walks through data of patent publication US20210205244A1, “PREVENTION AND/OR TREATMENT OF CHRONIC FATIGUE SYNDROME” (BOHNE ASKØY AS, priority 2016, published 2021).

The test system of series [1] is healthy and ME affected persons. To be noted: general knowledge; cited from earlier work.
For the next series, the system named is P12. To be noted: P12, altogether 8 doses; cited from earlier work.
The next series relates to Person 5. The series can be described thus: Medicinal drug use in combination with the treatment. The settings on record: Person 5, excluded after 20 weeks. Type of series: in vivo, human. The protocol:
Three persons were not receiving the drinkable for self-treatment: 2, 5 and 6. […] Person 6 was excluded of toxicological consideration after 20 weeks because massive use of painkiller […] forte, 600 mg: 20 tablets per day, and was practically an abuser of medicinal drugs. Person 2 was excluded because use of sleep medicine-Alimemazin tartrate. All three drugs listed with long list of the negative by-effects. Those effects are very similar to the symptoms on the list of Canadian Criteria. Further treatment with mixture of drinkable oxalates was therefore is not considerate.

Structures can show the parent of a compound that is named as a salt.

As for `O=C(O)CCCCC1CCSS1` (stereo not drawn) [ALA, alpha-lipoic acid], the “Time of excretion via urine post intake” value in series [1] was 30 to 60 min.

Consider “Rituximab: Rituximab therapy given in clinical studies at Haukeland University Hospital”, for which the Response to therapy result with P12 is given as “non-responder”.

On to `CN(C)CCC[C@@]1(c2ccc(F)cc2)OCc2cc(C#N)ccc21` [Escitalopram Oxalate], for which, in the series on Person 5, the “Adverse effect in combination with mixture of drinkable oxalates” value was “massive diarrhea”.
